Experimental data published in US20230381321A1, “CAMPTOTHECIN CONJUGATES” (priority 2022, published 2023).
Like-named read-outs stand apart in the source and are kept apart here.

Experiments:
Type in all cases: cell-based
[1] = tested on: pancreatic cancer cells (BxPC3); assay: In vitro potency (CellTiter-Glo, 96 h) on BxPC3; details: read-out: BxPC3 IC50
Protocol: (§1) In vitro potency was assessed on multiple cancer cell lines. All cell lines were authenticated by STR profiling at IDEXX Bioresearch and cultured for no more than 2 months after resuscitation. Cells cultured in log-phase growth were seeded for 24 hours in 96-well plates containing […] RPMI 1640 supplemented with 20% FBS. Serial dilutions of antibody-drug conjugates in cell culture media were prepared at 4x working concentrations, and 50 μL of each dilution was added to the 96-well plates. Following addition of test articles, cells were incubated with test articles for 4 days at […]. After 96 hours, growth inhibition was assessed by CellTiterGlo® (Promega, Madison, WI) and luminescence was measured on a plate reader.
(§2) Cell viability was determined by CellTiter-Glo staining after 96h exposure to ADC. ND=Not Determined. In the following tables, “Ex_” refers to a drug linker number. For example, “Ag4-Ex_4a” refers to a conjugate of an Ag4 antibody with drug linker 4a.

[2] = tested on: anaplastic large cell lymphoma cells (DELBVR); assay: In vitro potency (CellTiter-Glo, 96 h) on DELBVR; details: read-out: DELBVR IC50
Protocol: as §1, §2

[3] = tested on: acute myeloid leukemia cells (MOLM-13); assay: In vitro potency (CellTiter-Glo, 96 h) on MOLM-13; details: read-out: MOLM-13 IC50
Protocol: as §1, §2

[4] = tested on: renal carcinoma cells (786-O); assay: In vitro potency (CellTiter-Glo, 96 h) on 786-O; details: read-out: 786-O IC50
Protocol: as §1, §2

[5] = tested on: B-lymphocyte cancer cells (SU-DHL4); assay: In vitro potency (CellTiter-Glo, 96 h) on SU-DHL4; details: read-out: SU-DHL-4 IC50
Protocol: as §1, §2

[6] = tested on: anaplastic large cell lymphoma cells (DEL); assay: In vitro potency (CellTiter-Glo, 96 h) on DEL; details: read-out: DEL IC50
Protocol: as §1, §2

[7] = tested on: anaplastic large cell lymphoma cells (Karpas299); assay: In vitro potency (CellTiter-Glo, 96 h) on Karpas299; details: read-out: Karpas299 IC50
Protocol: as §1, §2

[8] = tested on: breast cancer cells (MDA-MB-231); assay: In vitro potency (CellTiter-Glo, 96 h) on MDA-MB-231; details: read-out: MDAMB 231 IC50
Protocol: as §1, §2

melanoma cells (A2058) = assay: In vitro potency (CellTiter-Glo, 96 h) on A2058; details: read-out: A2058 IC50
Protocol: as §1, §2

[9] = tested on: Hodgkin's lymphoma cells (L540cy); assay: In vitro potency (CellTiter-Glo, 96 h) on L540cy; details: read-out: L540cy IC50
Protocol: as §1, §2

[10] = In vitro potency (CellTiter-Glo, 96 h) on Ls174T; details: read-out: Ls174T IC50
Protocol: as §1, §2

[11] = tested on: non-small-cell lung cancer cells (Calu1); assay: In vitro potency (CellTiter-Glo, 96 h) on Calu1; details: read-out: Calu1 IC50
Protocol: as §1, §2

[12] = Homo sapiens, BXPC-3, 96 h, CPT free drugs, CellTiter-Glo after 96 h exposure
[13] = 96 h, CPT free drugs, CellTiter-Glo after 96 h exposure
[14] = Homo sapiens, MOLM-13, 96 h, CPT free drugs, CellTiter-Glo after 96 h exposure
[15] = Homo sapiens, 786-0, 96 h, CPT free drugs, CellTiter-Glo after 96 h exposure
[16] = Homo sapiens, SU-DHL-4, 96 h, CPT free drugs, CellTiter-Glo after 96 h exposure
[17] = Homo sapiens, KARPAS-299, 96 h, CPT free drugs, CellTiter-Glo after 96 h exposure
[18] = Homo sapiens, MDA-MB-231, 96 h, CPT free drugs, CellTiter-Glo after 96 h exposure
[19] = Homo sapiens, A2058, 96 h, CPT free drugs, CellTiter-Glo after 96 h exposure
[20] = L540cy, 96 h, CPT free drugs, CellTiter-Glo after 96 h exposure
[21] = Homo sapiens, LS174T, CPT free drugs, CellTiter-Glo after 96 h exposure
[22] = Homo sapiens, Calu-1, 96 h, CPT free drugs, CellTiter-Glo after 96 h exposure
[23] = CPT free drugs, CellTiter-Glo after 96 h exposure

Row | SMILES | IC50 [1, 12] [nM] | IC50 [2, 13] [nM] | IC50 [3, 14] [nM] | IC50 [4, 15] [nM] | IC50 [5, 16] [nM] | IC50 [6, 13] [nM] | IC50 [7, 17] [nM] | IC50 [8, 18] [nM] | IC50 (melanoma cells (A2058); [19]) [nM] | IC50 [9, 20] [nM] | IC50 [10, 21] [nM] | IC50 [11, 22] [nM] | also measured
1 | CCc1c(C)c(F)cc2nc3c(c(CN)c12)Cn1c-3cc2c(c1=O)COC(=O)[C@]2(O)CC [Compound 10, (S)-11-(aminomethyl)-4,10-diethyl-8-fluoro-4-hydroxy-9-methyl-1,12-dihydro-14H-pyrano[3′,4′:6,7]indolizino[1,2-b]quinoline-3,14(4H)-dione] |  |  |  |  |  |  |  |  |  |  |  |  | IC50 ([1]; Homo sapiens, BXPC-3, 96 h): 64 nM; IC50 ([2]; 96 h): 15 nM; IC50 ([3]; Homo sapiens, MOLM-13, 96 h): 149 nM; IC50 ([4]; Homo sapiens, 786-0, 96 h): 54 nM; IC50 ([5]; Homo sapiens, SU-DHL-4, 96 h): 15 nM; IC50 ([6]; 96 h): 7 nM; IC50 ([7]; Homo sapiens, KARPAS-299, 96 h): 57 nM; IC50 ([8]; Homo sapiens, MDA-MB-231, 96 h): 59 nM; IC50 (melanoma cells (A2058); Homo sapiens, A2058, 96 h): 33 nM; IC50 ([9]; L540cy, 96 h): 51 nM; IC50 ([10]; Homo sapiens, LS174T, 96 h): 33 nM; IC50 ([11]; Homo sapiens, Calu-1, 96 h): 95 nM
2 | CC[C@@]1(O)C(=O)OCc2c1cc1n(c2=O)Cc2c-1nc1cc(F)c(C)c(C3=CCN(C(C)=O)CC3)c1c2CN [Compound 6k] | 95 | 11 | 13 | 80 | 21 | 7 | 40 | 368 | 17 | 16 | 46 | 170 | 
3 | C=C(C)c1ccc2nc3c(c(CN)c2c1)Cn1c-3cc2c(c1=O)COC(=O)[C@]2(O)CC [Compound 33a] | 50 | 12 | 258 | 34 | 14 | 7 | 28 | 36 | 18 | 21 | 18 | 120 | 
4 | C/C=C(\C)c1c(C)c(F)cc2nc3c(c(CN)c12)Cn1c-3cc2c(c1=O)COC(=O)[C@]2(O)CC [Compound 6a] | 8 | 3 | 4 | 6 | 2 | 2 | 5 | 7 | 5 | 4 | 12 | 21 | 
5 | CC[C@@]1(O)C(=O)OCc2c1cc1n(c2=O)Cc2c-1nc1ccc(SC)c(F)c1c2CN [Compound 2au] | 6 | 1 | 40 | 4 | 2 | 1 | 5 | 1 | 3 | 1 | 2 | 7 | 
6 | CC[C@@]1(O)C(=O)OCc2c1cc1n(c2=O)Cc2c-1nc1cc(F)c(C)c(C3=CCCCC3)c1c2CN [Compound 6b] | 18 | 5 | 9 | 23 | 9 | 5 | 14 | 35 | 15 | 13 | 85 | 32 | 
7 | CC[C@@]1(O)C(=O)OCc2c1cc1n(c2=O)Cc2c-1nc1cc(F)c(C)c(-c3ccc(O)cc3)c1c2CN [Compound 6f] | 46 | 8 | 51 | 97 | 19 | 9 | 59 | 139 | 17 | 23 | > 1000 | 294 | 
8 | CC[C@@]1(O)C(=O)OCc2c1cc1n(c2=O)Cc2c-1nc1cc3c(cc1c2CN)C(C)CO3 (single isomer, unassigned) [Compound 11a] |  |  |  |  |  |  |  |  |  |  |  |  | IC50 [1, 23]: 23 nM; IC50 [2, 23]: 4 nM; IC50 [3, 23]: 14 nM; IC50 [4, 23]: 15 nM; IC50 [5, 23]: 3 nM; IC50 [6, 23]: 2 nM; IC50 [7, 23]: 13 nM; IC50 [8, 23]: 100 nM; IC50 (melanoma cells (A2058); [23]): 5 nM; IC50 [9, 23]: 6 nM; IC50 [10, 23]: > 1000 nM; IC50 [11, 23]: 131 nM
9 | CC[C@@]1(O)C(=O)OCc2c1cc1n(c2=O)Cc2c-1nc1cc(F)c(C)c(-c3ccsc3)c1c2CN [Compound 6g] | 7 | 1 | 6 | 6 | 2 | 1 | 4 | 12 | 4 | 4 | 14 | 25 | 
10 | CC[C@@]1(O)C(=O)OCc2c1cc1n(c2=O)Cc2c-1nc1cccc(OC)c1c2CN [Compound 5a] | 154 | 10 | 73 | 56 | 12 | 7 | 28 | 350 | 16 | 20 | > 1000 | 389 | 
11 | CC[C@@]1(O)C(=O)OCc2c1cc1n(c2=O)Cc2c-1nc1cc(F)cc(Br)c1c2CN [Compound 2aw] | 149 | 15 | 199 | 58 | 22 | 15 | 36 | 456 | 18 | 25 | > 1000 | 269 | 
12 | CC[C@@]1(O)C(=O)OCc2c1cc1n(c2=O)Cc2c-1nc1cc3c(cc1c2CNC(=O)OCc1ccc(NC(=O)[C@H](CCCCN)NC(=O)[C@@H](NC(=O)CCOCCOCCOCCOCCNC(=O)CCN2C(=O)C=CC2=O)C(C)C)cc1)CCO3 [Compound 14, [4-[[(2S)-6-amino-2-[[(2S)-2-[3-[2-[2-[2-[2-[3-(2,5-dioxopyrrol-1-yl)propanoylamino]ethoxy]ethoxy]ethoxy]ethoxy]propanoylamino]-3-methyl-butanoyl]amino]hexanoyl]amino]phenyl]methyl N-[[(5S)-5-ethyl-5-hydroxy-6,10-dioxo-7,20-dioxa-11,24-diazahexacyclo[11.11.0.02,11.04,9.015,23.017,21]tetracosa-1(13),2,4(9),14,16,21,23-heptaen-14-yl]methyl]carbamate;2,2,2-trifluoroacetic acid] |  |  |  |  |  |  |  |  |  |  |  |  | IC50 [1, 23]: 6 nM; IC50 [2, 23]: 1 nM; IC50 [3, 23]: 22 nM; IC50 [4, 23]: 4 nM; IC50 [5, 23]: 1 nM; IC50 [7, 23]: 4 nM; IC50 [8, 23]: 5 nM; IC50 (melanoma cells (A2058); [23]): 2 nM; IC50 [9, 23]: 2 nM; IC50 [10, 23]: 3 nM; IC50 [11, 23]: 9 nM
13 | CC[C@@]1(O)C(=O)OCc2c1cc1n(c2=O)Cc2c-1nc1cc3c(c(Br)c1c2CN)OCO3 [Compound 5c] |  |  |  |  |  |  |  |  |  |  |  |  | IC50 ([1]; Homo sapiens, BXPC-3, 96 h): 8 nM; IC50 ([3]; Homo sapiens, MOLM-13, 96 h): 2 nM; IC50 ([4]; Homo sapiens, 786-0, 96 h): 1 nM; IC50 ([5]; Homo sapiens, SU-DHL-4, 96 h): 0.5 nM; IC50 ([6]; 96 h): 0.3 nM; IC50 ([7]; Homo sapiens, KARPAS-299, 96 h): 1 nM; IC50 ([8]; Homo sapiens, MDA-MB-231, 96 h): 2 nM; IC50 (melanoma cells (A2058); Homo sapiens, A2058, 96 h): 5 nM; IC50 ([9]; L540cy, 96 h): 0.8 nM; IC50 ([10]; Homo sapiens, LS174T, 96 h): 6 nM; IC50 ([11]; Homo sapiens, Calu-1, 96 h): 4 nM
